Results from patent US20260364181A1, “AKR1C3 Targeted Heterobifunctional Small Molecule Proteolysis Targeting Chimeras” (BOARD OF REGENTS OF THE UNIVERSITY OF NEBRASKA, priority 2022, published 2026).

Molecular target: T1, AKR1C3 (Homo sapiens, UniProt P42330)
T1 sequence (P42330 1-323): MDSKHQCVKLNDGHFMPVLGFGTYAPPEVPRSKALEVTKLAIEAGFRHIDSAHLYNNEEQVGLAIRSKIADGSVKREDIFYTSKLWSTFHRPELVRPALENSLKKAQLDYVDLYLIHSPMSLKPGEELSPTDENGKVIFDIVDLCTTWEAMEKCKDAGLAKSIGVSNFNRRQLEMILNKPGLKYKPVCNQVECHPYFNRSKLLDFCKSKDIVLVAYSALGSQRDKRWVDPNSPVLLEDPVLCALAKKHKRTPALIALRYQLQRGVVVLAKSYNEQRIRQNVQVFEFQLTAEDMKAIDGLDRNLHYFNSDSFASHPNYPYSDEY
Assay: AKR1C3 protein degradation in 22Rv1 prostate cancer cells (Western blot)
Assay type: cell-based
Set-up: 22Rv1 prostate cancer cells that express high levels of AKR1C3; host or cells: 22Rv1
Conditions: read-out: AKR1C3 DC50 (half-maximal degradation concentration); 72 hours

DC50: 52 nM
SMILES: O=C(O)/C=C/c1cc(C(=O)NCc2ccc(OCc3cn(CCOCCOCC(=O)Nc4cccc5c4CN(C4CCC(=O)NC4=O)C5=O)nn3)cc2)cc(-c2ccccc2)c1 (stereo not shown) [Compound IA, (E)-3-(5-((4-((1-(2-(2-(2-((2-(2,6-dioxopiperidin-3-yl)-1-oxoisoindolin-4-yl)amino)-2-oxoethoxy)ethoxy)ethyl)-1H-1,2,3-triazol-4-yl)methoxy)benzyl)carbamoyl)-[1,1 ? biphenyl]-3-yl)acrylic acid]
